Measured values from US11986446B2, “Method of administration of gamma hydroxybutyrate with monocarboxylate transporters” (priority 2013, dated 2024).
Like-named read-outs stand apart in the source and are kept apart here.

What was measured:
[1] = test system: healthy male subjects; format: in vivo, human
[2] = test system: healthy adults; test: Ibuprofen combined with Xyrem, PD (KSS and CDR System tasks); format: in vivo, human
Experimental: The effects of Ibuprofen were evaluated when combined with Xyrem® in a manner similar to the above. […] However, it was observed that renal excretion of Xyrem® doubled upon concomitant administration of Ibuprofen and Xyrem®.

[3] = Phase 1 crossover study of Xyrem with and without divalproex sodium, pharmacokinetics of GHB; format: in vivo, human
From the text: This study is designed to compare the pharmacokinetic (PK) and pharmacodynamic (PD) endpoints of Xyrem® with and without co-administration of divalproex sodium extended-release tablets. The crossover design allows within-subject comparisons of the PK and PD of Xyrem® dosed alone and in combination with divalproex sodium extended-release tablets. PD parameters include the following: Cognitive Drug Research (CDR) System tasks: Karolinska Sleepiness Scale (KSS), Simple Reaction Time (SRT), Digit Vigilance (DV), Choice Reaction Time (CRT), Tracking and Numeric Working Memory (NWM).
This was a Phase 1, randomized, double-blind, placebo-controlled, five-period, crossover study in healthy male subjects. The study was conducted in approximately 24 healthy subjects to ensure completion of 16 subjects. Following Screening and Baseline procedures, eligible subjects were randomized to receive Xyrem® and Xyrem® placebo in a crossover fashion in Periods 1 and 2; were dosed with divalproex sodium extended-release tablets for 10 consecutive days in Period 3; and while continuing to take divalproex sodium extended-release tablets, were randomized to receive Xyrem® and Xyrem® placebo in a crossover fashion in Periods 4 and 5 (Table 1).
Subjects were randomized to receive two 3 g doses of Xyrem® or Xyrem® placebo 4 hours apart in a crossover fashion at approximately 9 AM (first dose) and 1 PM (second dose) on Days 1 and 3. PK and PD parameters were evaluated during the 24 hours postdose.
Blood samples (4 mL) for sodium oxybate concentrations were collected at predose and at specified time-points up to 12 hours after the first dose of Xyrem® or Xyrem® placebo on Days 1 and 3. A PD Battery including the Karolinska Sleepiness Scale, Simple Reaction Time task, Digit Vigilance task, Choice Reaction Time task, Tracking task, and Numeric Working Memory task was administered at planned timepoints up to X hours after first dose (X hours after second dose), and safety were monitored at specified timepoints on Days 1 and 3 as well as throughout the periods.
All subjects received divalproex sodium extended-release tablets 1250 mg at approximately 8 AM on Days 5 through 14. Blood samples (4 mL) for valproic acid concentrations were collected before the divalproex sodium dose (to determine trough concentration for assessment of steady state) on Days 13 and 14. Safety was monitored at specified timepoints as well as throughout the period.
Subjects continued taking 1250 mg divalproex sodium extended-release tablets at approximately 8 AM on Days 15 through 18. Subjects were also randomized to receive two 3 g doses of Xyrem® or Xyrem® placebo in a crossover fashion at approximately 9 am (first dose) and 1 pm (second dose) on Days 15 and 18. The first dose of Xyrem® or Xyrem® placebo was taken approximately 1 hour after dosing with divalproex sodium extended-release tablets, and the second dose of Xyrem® or Xyrem® placebo was taken 4 hours after the first Xyrem®/Xyrem® placebo dose.
Blood samples (4 mL) to measure plasma sodium oxybate concentrations were collected at pre Xyrem®/Xyrem® placebo dose and at specified timepoints after the first Xyrem® or Xyrem® placebo dose on Days 15 and 18. Blood samples (4 mL) to measure plasma valproic acid concentrations were collected pre divalproex sodium dose and at specified timepoints after the dose of divalproex sodium extended-release tablets on Day 15 and 18. […]

[4] = test system: healthy subjects
[5] = alcohol dependent patients, oral administration; cited from earlier work
[6] = healthy volunteers; 12.5, 25, and 50 mg/kg; cited from earlier work
[7] = Ibuprofen combined with Xyrem, pharmacokinetics of GHB
[8] = GHB and divalproate concomitantly administered, statistically significant
[9] = GHB co-administered with valproate, attributed to GHB dehydrogenase inhibition

CCCC(CCC)C(=O)O [Divalproex sodium, 2-propylvaleric acid]
effects on cognitive function or sleepiness ([1]; in vivo): no consistent or notable effects on cognitive function or sleepiness

CC(C)Cc1ccc(C(C)C(=O)O)cc1 (centres unmarked) [Ibuprofen, iso-butyl-propanoic-phenolic acid]
Karolinska Sleepiness Scale, Simple Reaction Time, Digit Vigilance, Choice Reaction Time, Tracking and Numeric Working Memory [2]: No differences were seen

O=C(O)CCCO [Xyrem®, sodium oxybate]
PD effects ([1]; GHB and divalproate concomitantly administered): more pronounced effects with concomitant administration
sleepiness, attention, working memory and tracking task performance ([1]; Xyrem alone, two 3 g doses, healthy volunteers): induces sleepiness and produces impairments to attention, working memory and performance on a tracking task
Tracking Distance from Target, change from baseline ([1]; Xyrem and divalproex sodium together (A+C) vs Xyrem alone (A), at 4 and 8 hours): statistically significant difference by a slightly delayed recovery for the combination
Numeric Working Memory Sensitivity Index, change from baseline ([1]; Xyrem and divalproex sodium together (A+C) vs Xyrem alone (A), at 4.5 through 8 hours): showed a difference
Continuity of Attention, change from baseline ([1]; Xyrem and divalproex sodium together (A+C) vs Xyrem alone (A), at 4 hours and 8 hours): slightly delayed recovery for the combination
Digit Vigilance Accuracy, change from baseline ([1]; Xyrem and divalproex sodium together vs Xyrem alone, at 2.5 and 4 hours): statistically reliably different greater impairment to Xyrem® alone
impairments over time ([1]; Xyrem dosed with divalproex sodium vs divalproex sodium alone (compared with Xyrem vs its placebo)): more consistent statistically significant impairments over time were seen with the combination
impairments to cognitive function and sleepiness ([1]; co-administration of Xyrem and divalproex vs Xyrem alone): greater impairments to cognitive function and sleepiness than were seen with Xyrem® alone
Numeric Working Memory Mean Reaction Time, change from baseline ([1]; in vivo): statistically significant differences at 2.5, 5 and 8 hours when the combination produced greater impairment
Simple Reaction Time Mean, change from baseline ([1]; in vivo): statistically reliably greater impairments than Xyrem® alone
renal clearance, increased [3, 8]: 30%
systemic exposure (plasma AUC), increased [3, 8]: 26%
AUC, increase [3, 9]: about 15%
Cmax, increase [3, 9]: about 15%
renal excretion of GHB, increase ([3]; upon co-administration of valproate): 30%
PD effects ([4]; GHB and diclofenac concomitantly administered): significantly reduced
Digit Vigilance Accuracy, change from baseline ([4]; Xyrem co-dosed with diclofenac vs Xyrem alone, at 1 and 2.5 h): significantly less impairment than Xyrem® alone
Power of Attention, change from baseline ([4]; Xyrem co-dosed with diclofenac vs Xyrem alone, at 1 and 4.5 h): narrowly missed significance
Power of Attention, change from baseline ([4]; Xyrem co-dosed with diclofenac vs Xyrem alone, at 0.5 h): significantly less impairment than Xyrem® alone
Power of Attention, change from baseline ([4]; Xyrem co-dosed with diclofenac vs diclofenac alone, 6.5 h and 8 h): impairments at two timepoints compared to diclofenac alone which at 6.5 h was significant and a trend at 8 h
Choice Reaction Time Mean, impairments ([4]; in vivo): significantly smaller than with Xyrem® alone
Digit Vigilance Mean Reaction Time, change from baseline ([4]; in vivo): significantly less impairment than Xyrem® alone
absorption into and elimination from the systemic circulation [5]: fast processes
unchanged drug recovered in the urine [5]: Virtually no unchanged drug could be recovered in the urine
oral absorption and elimination processes, dose dependency [6]: capacity-limited though the degree of dose dependency was moderate
plasma levels, lower ([7]; GHB concomitantly administered with ibuprofen, statistically significant): ~5%
renal excretion of GHB ([7]; concomitant administration of ibuprofen): doubled

O=C(O)Cc1ccccc1Nc1c(Cl)cccc1Cl [diclofenac, 2-(2,6-dichloranilino) phenylacetic acid]
effect of diclofenac on the effects of Xyrem on Power of Attention, simple and choice reaction time ([4]; co-dosed with Xyrem, during the hour after the first dose of Xyrem): significantly reduced the effects of the compound
effect on sleepiness or cognitive function ([4]; diclofenac alone (50 mg qid + Xyrem placebo)): no effect on sleepiness or cognitive function
interaction on feelings of sleepiness ([4]; diclofenac co-dosed with Xyrem): no interaction
protective effect on subjects ratings of alertness ([4]; diclofenac co-dosed with Xyrem): not seen
impairments (interaction) over the hour following the first dose of Xyrem ([4]; diclofenac co-dosed with Xyrem vs Xyrem alone): impairments being notably smaller
greater cognitive impairment or sleepiness on any measure ([4]; in vivo): no evidence on any measure of greater cognitive impairment or sleepiness
